The text below walks through data of US20230365488A1, “TRUXILLIC ACID MONOESTER-DERIVATIVES AS SELECTIVE FABP5 INHIBITORS AND PHARMACEUTICAL COMPOSITIONS AND USES THEREOF” (The Research Foundation for The State University of New York, priority 2020, published 2023).

The test system of assay [1] is HepG2 (human liver cancer) cells. Kind of assay: Cytotoxicity (MTT) assay, HepG2 (Example 5). Format: cell-based. To be noted: 72-hour incubation, 1% FBS.
The target of assay [2] is FABP7 (Homo sapiens (Human), UniProt O15540). Kind of assay: FABP7 fluorescent probe displacement binding assay. The settings on record: average ± S.E. of at least three independent experiments.
Chain of FABP7 (O15540 whole entry): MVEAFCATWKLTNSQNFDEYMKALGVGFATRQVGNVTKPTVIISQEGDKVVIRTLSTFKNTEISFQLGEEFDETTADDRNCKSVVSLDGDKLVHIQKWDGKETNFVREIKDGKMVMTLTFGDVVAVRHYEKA
The target in assay [3] is FABP5 (Homo sapiens (Human), UniProt Q01469). Kind of assay: FABP5 fluorescent probe displacement binding assay. To be noted: for Ki: average ± S.E. of at least three independent experiments; for FABP3 Ki/FABP5 Ki: selectivity ratio FABP3 over FABP5.
Chain of FABP5 (Q01469 whole entry): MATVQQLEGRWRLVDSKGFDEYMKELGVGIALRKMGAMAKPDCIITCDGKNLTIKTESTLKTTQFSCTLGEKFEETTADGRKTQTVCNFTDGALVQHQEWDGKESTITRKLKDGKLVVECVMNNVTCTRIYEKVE
Assay [4] addresses FABP3 (Homo sapiens (Human), UniProt P05413). The assay is described as follows: FABP3 fluorescent probe displacement binding assay. The settings on record: average ± S.E. of at least three independent experiments.
For assay [5], the system named is PC-3 (human metastatic prostate cancer) cells. The assay is described as follows: Cytotoxicity (MTT) assay, PC-3 (Example 5). The assay is classed as cell-based. To be noted: 72-hour incubation, 1% FBS, read-out: PC3 IC50.
The subject of assay [6] is WI-38 (human normal lung fibroblast) cells. Kind of assay: Cytotoxicity (MTT) assay, WI-38 (Example 5). Format: cell-based. The settings on record: 72-hour incubation, 1% FBS.
For assay [7], the system named is PC3 cells implanted subcutaneously. Kind of assay: Subcutaneous PC3 tumor growth in nude mice. Format: in vivo, male BALB/c nude mice. To be noted: 10 mg/kg, ip, once weekly.

Structures are written as SMILES. Bounds are passed on as bounds.

Chain of FABP3 (P05413 whole entry): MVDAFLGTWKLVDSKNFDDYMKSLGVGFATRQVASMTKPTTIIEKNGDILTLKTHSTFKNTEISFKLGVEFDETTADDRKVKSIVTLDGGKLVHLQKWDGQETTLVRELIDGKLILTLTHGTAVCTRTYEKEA

For the compound `COc1ccccc1C1[C@@H](C(=O)O)[C@@H](c2ccccc2OC)[C@@H]1C(=O)Oc1cccc(-c2ccc(F)cc2)c1` (mixture of isomers) [Compound 1e, (±)-α-2,4-di (2-methoxyphenyl)-3-[3-(4-fluorophenyl)phenoxycarbonyl]cyclobutane-1-carboxylic acid], the values for the half-maximal inhibitory concentration (IC50) in assay [1], in assay [5] and in assay [6] were 9.41 µM, 6.79 µM and 27.3 µM, respectively. The inhibition constant Ki in assay [2] was 0.99 ± 0.53 µM; in assay [3] it was 1.03 ± 0.11 µM; in assay [4] it was 2.28 ± 0.36 µM. Moreover, in assay [3], the “FABP3 Ki/FABP5 Ki” value is given as 2.2.
For `COc1ccccc1C1[C@@H](C(=O)O)[C@@H](c2ccccc2OC)[C@@H]1C(=O)Oc1cccc(-c2cccc3c2OCCO3)c1` (mixture of isomers) [Compound 1g, (±)-α-3-[3-(2,3-dihydrobenzo[b][1,4]dioxin-5-yl)phenoxycarbonyl]-2,4-di(2-methoxyphanyl)cyclobutane-1-carboxylic acid], the values for the IC50 in assay [1], in assay [5] and in assay [6] were 8.87 µM, 4.53 µM and 49.8 µM, respectively. For the same compound, the inhibition constant Ki stood at 0.91 ± 0.03 µM in assay [2], 0.41 ± 0.15 µM in assay [3] and 4.02 ± 1.04 µM in assay [4]. Besides, the “FABP3 Ki/FABP5 Ki” value in assay [3] is reported as 9.8.
On to `O=C1CCc2cc(-c3cccc(OC(=O)[C@@H]4C(c5ccccc5)[C@@H](C(=O)O)[C@H]4c4ccccc4)c3)ccc2N1` (mixture of isomers) [Compound 1h, (±)-α-2,4-diphenyl-3-[3-(2-oxo-1,2,3,4-tetrahydroquinolin-6-yl)phenoxycarbonyl]cyclobutane-1-carboxylic acid], for which the IC50 in assay [1] worked out at 7.89 µM; in assay [5] it was 4.93 µM; in assay [6], 24 µM. In addition, the inhibitory constant (Ki) in assay [2] was found to be 0.7 ± 0.03 µM; in assay [3], 0.74 ± 0.06 µM; in assay [4], 8.11 ± 1.67 µM. In addition, in assay [3], the “FABP3 Ki/FABP5 Ki” value is 10.9.
On to `COc1ccccc1C1[C@@H](C(=O)O)[C@@H](c2ccccc2OC)[C@@H]1C(=O)Oc1cccc(-c2ccc3c(c2)OCCO3)c1` (mixture of isomers) [Compound 1m], for which the half-maximal inhibitory concentration (IC50) was found to be 11.2 µM in assay [1], 7.25 µM in assay [5] and 49.5 µM in assay [6]. The Ki in assay [2] amounted to 2.25 ± 0.13 µM; in assay [3], 1.56 ± 0.19 µM; in assay [4], 2.79 ± 0.85 µM. The “FABP3 Ki/FABP5 Ki” value in assay [3] amounted to 1.8.
Consider `COc1ccccc1[C@@H]1C(C(=O)O)[C@@H](c2ccccc2OC)C1C(=O)Oc1ccccc1-c1ccc2c(c1)OCO2` (mixture of isomers) [Compound 1n, (±)-α-3-[2-(bnzo[d][1,3]dioxol-5-yl)phenoxycarbonyl]-2,4-di (2-methoxyphenyl)cyclobutane-1-carboxylic acid], for which the 50% inhibitory concentration (IC50) in assay [1] was 23.5 µM; in assay [5], 20.7 µM; in assay [6] it was 59.4 µM. In addition, the inhibition constant Ki amounted to 0.26 ± 0.09 µM in assay [2], 1.59 ± 0.11 µM in assay [3] and 1.28 ± 0.28 µM in assay [4]. Moreover, the “FABP3 Ki/FABP5 Ki” value in assay [3] is 0.8.
With `COc1ccccc1[C@H]1[C@H](C(=O)O)[C@H](c2ccccc2OC)[C@H]1C(=O)Oc1ccccc1-c1ccccc1` (racemic) [Compound 1o, (±)-α-3-(1,1′-biphenyl-2-yloxycarbonyl)-2,4-di (2-methoxyphenyl)cyclobutane-1-carboxylic acid], the results for the 50% inhibitory concentration (IC50) in assay [1], in assay [5] and in assay [6] were 9.43 µM, 8.69 µM and more than 100 µM, respectively. The results for the Ki in assay [2], in assay [3] and in assay [4] were 1.36 ± 0.23 µM, 1.59 ± 0.24 µM and 0.21 ± 0.09 µM, respectively. Further, the “FABP3 Ki/FABP5 Ki” value in assay [3] is listed as 0.13.
With `COc1ccccc1[C@H]1[C@H](C(=O)O)[C@H](c2ccccc2OC)[C@H]1C(=O)OCc1cccc2ccccc12` (racemic) [Compound 1q, (±)-α-2,4-bis(2-methoxyphenyl)-3-(naphthalen-1-ylmethoxycarbonyl)cyclobutane-1-carboxylic acid], the results for the IC50 in assay [1], in assay [5] and in assay [6] were 12.4 µM, 11.3 µM and 20.3 µM, respectively. In addition, the inhibition constant (Ki) in assay [2] stood at 8.04 ± 0.71 µM; in assay [3] it was 2.15 ± 0.17 µM; in assay [4], 52.6 ± 8.62 µM. Further, the “FABP3 Ki/FABP5 Ki” value in assay [3] is given as 24.5.
For the compound `COc1ccccc1[C@H]1[C@H](C(=O)O)[C@H](c2ccccc2OC)[C@@H]1C(=O)Oc1cccc(-c2cccc3c2OCCO3)c1` (racemic) [Compound 2c, (±)-γ-3-((3-(2,3-dihydrobenzo[b][1, 4]dioxin-5-yl)phenoxy)carbonyl)-2,4-di(2-methoxyphenyl)cyclobutane-1-carboxylic acid], the figures for the 50% inhibitory concentration (IC50) in assay [1], in assay [5] and in assay [6] were 16.4 µM, 10.1 µM and 52.1 µM, respectively. Further, the Ki was determined as 1.78 ± 0.45 µM in assay [2], 1.26 ± 0.12 µM in assay [3] and 6.86 ± 0.07 µM in assay [4]. Also, the “FABP3 Ki/FABP5 Ki” value in assay [3] is recorded as 5.4.
For `O=C(O)[C@@H]1C(c2ccccc2)[C@H](C(=O)OCc2ccccc2-c2ccccc2)[C@H]1c1ccccc1` (mixture of isomers) [Compound 3c, (±) -ε-3-(1,1′-biphenyl-2-ylmethoxycarbonyl)-2,4-diphenylcyclobutane-1-carboxylic acid], the IC50 in assay [1] worked out at 13.8 µM; in assay [5], 15 µM; in assay [6] it was 22.2 µM. For the same compound, the Ki is 0.68 ± 0.16 µM in assay [2], 1.65 ± 0.22 µM in assay [3] and 3.4 ± 0.54 µM in assay [4]. Further, the “FABP3 Ki/FABP5 Ki” value in assay [3] is given as 2.1.
Take `O=C(O)[C@@H]1[C@@H](c2ccccc2)[C@H](C(=O)OCc2cccc3ccccc23)[C@H]1c1ccccc1` [Compound 3f, ε-2,4-diphenyl-3-(napthylen1-yl)methoxycarbonylcyclobutane-1-carboxylic acid]: the concentration for half-maximal inhibition (IC50) in assay [1] turned out to be 1.26 µM; in assay [5] it was 0.95 µM; in assay [6], 1.6 µM. Besides, the Ki came to 0.86 ± 0.04 µM in assay [2], 5.08 ± 0.62 µM in assay [3] and 7.42 ± 1.38 µM in assay [4]. Besides, the “FABP3 Ki/FABP5 Ki” value in assay [3] is 1.5.
Regarding `O=C(O)[C@@H]1[C@@H](c2ccccc2)[C@H](C(=O)Oc2cccc3ccccc23)[C@H]1c1ccccc1` [Compound 3g], the half-maximal inhibitory concentration (IC50) came to 36.9 µM in assay [1], 10.6 µM in assay [5] and 54.2 µM in assay [6]. The figures for the inhibition constant (Ki) in assay [2] and in assay [4] were 0.38 ± 0.08 µM and 0.32 ± 0.03 µM, respectively.
On to `CC(=O)O[C@@]12CO[C@@H]1C[C@H](O)[C@@]1(C)C(=O)[C@H](O)C3=C(C)[C@@H](OC(=O)[C@H](O)[C@@H](NC(=O)OC(C)(C)C)c4ccccc4)C[C@@](O)([C@@H](OC(=O)c4ccccc4)[C@H]21)C3(C)C` [docetaxel, reference compound], for which the tumor growth entry in assay [7] is “near complete inhibition of growth”.
